Laboratory results taken from US20030229125A1, “Herbicidal substituted pyridines, their preparation, and their use as herbicides and plant growth regulators” (priority 2001, published 2003).

Columns and labels:
[1] = test system: Sinapis alba, Chrysanthemum segetum, Avena sativa, Stellaria media, Echinochloa crus-galli, Lolium multiflorum, Setaria spp., Abutilon theophrasti, Amaranthus …; assay: Pre-emergence effect on weeds (greenhouse pot test, visual scoring); format: in vivo, mono- and dicotyledonous weed plants; conditions: application rate of 1 kg or less of active substance per hectare; visually scored after 3 to 4 weeks vs untreated controls
Text: Seeds or rhizome pieces of mono- and dicotyledonous weed plants were placed in sandy loam soil in plastic pots and covered with soil. The compounds according to the invention, formulated in the form of wettable powders or emulsion concentrates, were then applied to the soil cover in the form of aqueous suspensions or emulsions at an application rate of 600 to 800 l of water/ha (converted), in various dosages. After the treatment, the pots were placed in a greenhouse and kept under good growth conditions for the weeds. After the test plants had emerged, the damage to the plants or the negative effect on the emergence was visually scored after a test period of 3 to 4 weeks by comparison with untreated controls. As shown by the test results, the compounds according to the invention have good herbicidal pre-emergence activity against a broad spectrum of week grasses and broad-leaved weeds.

[2] = test system: Sinapis alba, Echinochloa crus-galli, Lolium multiflorum, Chrysanthemum segetum, Setaria spp., Abutilon theophrastic, Amaranthus retroflexus, Panicum miliaceum …; assay: Post-emergence effect on weeds (greenhouse pot test, visual scoring); format: in vivo, mono- and dicotyledonous weeds; conditions: application rate of 1 kg or less of active substance per hectare; treated at three-leaf stage; scored visually after about 3 to 4 weeks
Experimental: Seeds or rhizome pieces of mono- and dicotyledonous weeds were placed in sandy loam soil in plastic pots, covered with soil and grown in a greenhouse under good growth conditions. Three weeks after sowing, the test plants were treated at the three-leaf stage. The compounds according to the invention, formulated as wettable powders or emulsion concentrates, were sprayed, at various dosages, onto the green parts of the plants at an application rate of 600 to 800 l of water/ha (converted). After the test plants had remained in the greenhouse for about 3 to 4 weeks under optimum growth conditions, the effect of the preparations was scored visually by comparison with untreated controls. The agents according to the invention also have good herbicidal activity post-emergence against a broad spectrum of economically important weed grasses and broad-leaved weeds.

CCN(Cc1cccc(Oc2cc(C(F)(F)F)nn2C)n1)S(C)(=O)=O [Example 4]
herbicidal activity pre-emergence against weed plants [1]: very good herbicidal activity
herbicidal activity post-emergence against weed plants [2]: very good herbicidal activity
